According to patent US20200223889A1, “Bicyclic Compounds Capable of Binding to Melanocortin 4 Receptor” (Novo Nordisk A/S, priority 2017, published 2020):
Where two headings read alike, the source gives them in different places. Starred links: 1 amine or outer side, 2 acyl side, 3 side chain; linkers in the order of their positions; H or OH if unused. Positions of bridges follow the written chain, without caps; N, C: chain ends. Non-standard residues stand in square brackets, D forms with d. Residues, ends and D or L forms follow the SMILES beside them. Hyp = O=C(O)[C@@H]1C[C@@H](O)CN1; Pen = CC(C)(S)[C@H](N)C(=O)O; d(hCys) = N[C@H](CCS)C(=O)O; Orn = NCCC[C@H](N)C(=O)O; Thz = O=C(O)[C@@H]1CSCN1; Api = NC1(C(=O)O)CCNCC1; X1 = C(CN[*:2])CS[*:1]

How the values were obtained:
[1] = target: T1, human MC4R (Homo sapiens, UniProt P32245); experiment: Functional cAMP assay (CisBio HTRF) in BHK cells expressing human MC4R; assay type: cell-based; details: for MC1R/MC4R cAMP EC50 ratio: MC1R cAMP EC50 divided by MC4R cAMP EC50
T1 construct: expressed in transfected cells
Description: In order to assess the potency of the compounds on human MC1R and human MC4R cAMP signalling was measured.
cAMP induction was measured by c-AMPdynamic2 assay, HTRF 62AM4PEC system from CisBio for the human MC1R and human MC4R according to the protocol provided by the vendor. BHK cells expressing the human MC1 or MC4 receptor were generated by stable transfection with expression vectors encoding the cDNA of either MC1R or MC4R.
In details; 25 μl compound—or standard solution were added in the respective wells. Compound was reconstituted in buffer (DMEM w/o phenol red, 10 mM
Hepes, lx Glutamine, 0.1% OV-albumin1, 1 mM IBMX) and serially diluted starting at 2 μM, 10-fold seven times. Dilutions were carried out in the same aforementioned buffer to the desired working concentration ranges (2× higher than the final concentration). 25 μl cell solution was then added and allowed to incubate for 30 min while lightly shaking, at 25° C. […] The provided components for the assay were reconstituted according to the CisBio assay protocol “3.1 supplied reagents and preparation procedure” in MilliQ purification system H2O and diluted 1:20 in lysis buffer. 25 μl cAMP-d2 and 25 μl Cryptate conjugate were added to all wells.
Plates were centrifuged at 1500 rpm for 30 sec and incubated for 1 h, lightly shaking, at 25° C. in a hotel stacker. The plates were read on Mithras LB 940 provided by Berthold Technologies The data were analysed by non-linear regression analysis of binding curves, using the Windows™ program GraphPad™ Prism (GraphPad Software, USA).
The latter is used when no full curve can be obtained in the concentration ranges indicated above.

[2] = target: T1, human MC4R; experiment: 125NDP-α-MSH competitive binding to membranes of BHK cells expressing human MC4 receptor (filtration assay)
Description: In Vitro ^125NDP-α-MSH Binding to Recombinant BHK Cells Expressing Human MC4 Receptor (Filtration Assay)
In order to assess the binding affinity of the selected compounds for the human MC4R competitive binding assays was performed with radiolabeled NDP-alpha MSH (^125NDP-α-MSH).
The assay was performed in 96-well filterplates (Unifilter) using BHK cells stably expressing the human MC4 receptor.
The BHK cell membranes were prepared from frozen or fresh cells that were homogenized in 20 mM HEPES pH 7.1, 5 mM MgCl2, 1 mg/ml bacitracin (buffer 1) and centrifuged at 15000 rpm at 4° C., 10 min in a Sorvall RC 5B plus, SS-34 rotor. The supernatant was discarded, and the pellets were re-suspended in buffer 1, homogenized and centrifuged two more times. The final pellets were re-suspended in buffer 1 and the protein concentration was measured and adjusted with buffer 1 to 5 mg/ml and the membrane preparation was kept at −80° C. until assay. The assay was run on a dilution of this cell membrane suspension without any further preparation. The suspension was diluted to give maximally 10% specific binding, i.e. to approx. 50-100 fold dilution, optimized after each membrane preparation. The assay was performed in a total volume of 200 μl: 50 μl of cell suspension, 50 μl of ^125NDP-α-MSH (apx. […] in final concentration), 50 μl of test compound and 50 μl binding buffer were mixed and incubated for 2 h at 25° C. (binding buffer: 25 mM HEPES, pH 7.0, 1 mM CaCl2), 1 mM MgSO4, 1 mM EGTA, 0.005% Tween™ 20 and 0.1% HSA or, alternatively, 0.1% ovalbumin (Sigma; catalogue No. A-5503)). Test compounds were dissolved in 100% DMSO and diluted in binding buffer in a dose range from 1 μM to 0.001 nM. Radiolabelled ligand and membranes were diluted in binding buffer. The incubation was stopped by dilution with 8×100 μl ice-cold 0.9% NaCl. The radioactivity retained on the filters was counted using a Packard Topcounter. The data were analysed by non-linear regression analysis of binding curves, using the Windows™ program GraphPad™ Prism (GraphPad Software, USA).

[3] = BHK cells expressing human MC4R, '>' = highest dose used with no response, read-out: MC4R cAMP EC50

T1 sequence (P32245 whole entry): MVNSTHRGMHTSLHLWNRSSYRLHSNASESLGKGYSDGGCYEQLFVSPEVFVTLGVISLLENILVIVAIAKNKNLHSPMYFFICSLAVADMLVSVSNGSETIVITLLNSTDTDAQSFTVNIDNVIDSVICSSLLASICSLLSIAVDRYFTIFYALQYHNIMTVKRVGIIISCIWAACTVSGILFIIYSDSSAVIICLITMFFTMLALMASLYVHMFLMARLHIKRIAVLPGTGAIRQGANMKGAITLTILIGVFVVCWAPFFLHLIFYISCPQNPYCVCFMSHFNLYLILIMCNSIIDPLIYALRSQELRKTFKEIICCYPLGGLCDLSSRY

| SMILES | EC50 [1] | MC1R/MC4R cAMP EC50 ratio [1] | Ki [2] | EC50 [1, 3] |
| --- | --- | --- | --- | --- |
| N=C(N)NCCC[C@@H]1NC(=O)[C@@H](Cc2ccccc2)NC(=O)[C@H](Cc2c[nH]cn2)NC(=O)C2(CCNCC2)NC(=O)[C@@H]2CSSC[C@H](NC(=O)[C@H](Cc3c[nH]c4ccccc34)NC1=O)C(=O)NC1(CCNCC1)C(=O)N[C@@H](Cc1c[nH]cn1)C(=O)N[C@H](Cc1ccccc1)C(=O)N[C@@H](CCCNC(=N)N)C(=O)N[C@@H](Cc1c[nH]c3ccccc13)C(=O)N2 [Chem. 47, c[c[Cys-ACP-His-D-Phe-Arg-Trp- Cys]-ACP-His-D-Phe-Arg-Trp]] (cyclo([Api]H[dF]RWC[Api]H[dF]RWC); disulfide 6-12) | 0.12 nM | 23 | 0.72 nM | – |
| N=C(N)NCCC[C@@H]1NC(=O)[C@H](Cc2c[nH]c3ccccc23)NC(=O)[C@H](CCCNC(=N)N)NC(=O)[C@@H](Cc2ccccc2)NC(=O)[C@H](Cc2c[nH]cn2)NC(=O)[C@@H]2CSSC[C@H](NC1=O)C(=O)N[C@@H](Cc1c[nH]cn1)C(=O)N[C@H](Cc1ccccc1)C(=O)N[C@@H](CCCNC(=N)N)C(=O)N[C@@H](Cc1c[nH]c3ccccc13)C(=O)N[C@@H](CCCNC(=N)N)C(=O)N2 [Chem. 68, c[c[Cys-His-D-Phe-Arg-Trp-Arg-Cys]- His-D-Phe-Arg-Trp-Arg]] (cyclo(CH[dF]RWRCH[dF]RWR); disulfide 1-7) | – | 1 | – | – |
| N=C(N)NCCC[C@@H]1NC(=O)[C@@H](Cc2ccccc2)NC(=O)[C@H](Cc2c[nH]cn2)NC(=O)[C@H](CCC(=O)O)NC(=O)[C@@H]2CSSC[C@H](NC(=O)[C@H](Cc3c[nH]c4ccccc34)NC1=O)C(=O)N[C@@H](CCC(=O)O)C(=O)N[C@@H](Cc1c[nH]cn1)C(=O)N[C@H](Cc1ccccc1)C(=O)N[C@@H](CCCNC(=N)N)C(=O)N[C@@H](Cc1c[nH]c3ccccc13)C(=O)N2 [Chem. 51, c[c[Cys-Glu-His-D-Phe-Arg-Trp-Cys]- Glu-His-D-Phe-Arg-Trp]] (cyclo(CEH[dF]RWCEH[dF]RW); disulfide 1-7) | – | 13 | – | 0.2 nM |
| C[C@@H]1NC(=O)[C@H](C)NC(=O)[C@H](CCCN)NC(=O)[C@H](CCCN)NC(=O)[C@@H]2CSSC[C@H](NC(=O)[C@H](Cc3c[nH]c4ccccc34)NC1=O)C(=O)N1CSC[C@H]1C(=O)N[C@@H](Cc1c[nH]cn1)C(=O)N[C@H](Cc1ccccc1)C(=O)N[C@@H](Cc1c[nH]cn1)C(=O)N[C@@H](Cc1c[nH]c3ccccc13)C(=O)N2 [Chem. 116, c[c[Cys-THAZ-His-D-Phe-His-Trp- Cys]-Orn-Orn-Ala-Ala-Trp]] (cyclo(AAWC[Thz]H[dF]HWC[Orn][Orn]); disulfide 4-10) | 0.12 nM | 1927 | – | – |
| CC(=O)N[C@@H](Cc1c[nH]cn1)C(=O)N[C@H](Cc1ccccc1)C(=O)N[C@@H](CCCNC(=N)N)C(=O)N[C@@H](Cc1c[nH]c2ccccc12)C(=O)NCC(=O)N[C@@H]1CCSSCCCNC(=O)CNC(=O)[C@H](Cc2c[nH]c3ccccc23)NC(=O)[C@H](CCCNC(=N)N)NC(=O)[C@@H](Cc2ccccc2)NC(=O)[C@H](Cc2c[nH]cn2)NC1=O [Chem. 4, c[c[Cys-His-D-Phe-Arg-Trp-Gly-Cys]- His-D-Phe-Arg-Trp-Gly]] (Ac-H[dF]RWG[d(hCys)]H[dF]RWG; linker 6-C via X1) | – | 7 | – | 0.09 nM |
| C[C@@H]1NC(=O)[C@@H]2CSSC[C@H](NC(=O)[C@H](CCCNC(=N)N)NC(=O)[C@@H](CCCCN)NC(=O)[C@@H](CCCCN)NC(=O)[C@H](Cc3c[nH]cn3)NC1=O)C(=O)N1CCC[C@H]1C(=O)N[C@@H](Cc1c[nH]cn1)C(=O)N[C@H](Cc1ccccc1)C(=O)N[C@@H](Cc1c[nH]cn1)C(=O)N[C@@H](Cc1c[nH]c3ccccc13)C(=O)N2 [Chem. 121, c[c[Cys-Pro-His-D-Phe-His-Trp-Cys]- Ala-His-D-Lys-D-Lys-Arg]] (cyclo(AH[dK][dK]RCPH[dF]HWC); disulfide 6-12) | – | 786 | – | 0.24 nM |
| C[C@@H]1NC(=O)[C@H](C)NC(=O)[C@H](CCCN)NC(=O)[C@H](CCCCN)NC(=O)[C@@H]2CSSC[C@H](NC(=O)[C@H](Cc3c[nH]c4ccccc34)NC1=O)C(=O)N1CSC[C@H]1C(=O)N[C@@H](Cc1c[nH]cn1)C(=O)N[C@H](Cc1ccccc1)C(=O)N[C@@H](Cc1c[nH]cn1)C(=O)N[C@@H](Cc1c[nH]c3ccccc13)C(=O)N2 [Chem. 115, c[c[Cys-THAZ-His-D-Phe-His-Trp-C ys]-Lys-Orn-Ala-Ala-Trp]] (cyclo(AAWC[Thz]H[dF]HWCK[Orn]); disulfide 4-10) | 0.1 nM | 1340 | – | – |
| N=C(N)NCCC[C@@H]1NC(=O)[C@@H](Cc2ccccc2)NC(=O)[C@H](Cc2c[nH]cn2)NC(=O)[C@@H]2CSSC[C@H](NC(=O)[C@H](CCC(=O)O)NC(=O)[C@H](Cc3c[nH]c4ccccc34)NC1=O)C(=O)N[C@@H](Cc1c[nH]cn1)C(=O)N[C@H](Cc1ccccc1)C(=O)N[C@@H](CCCNC(=N)N)C(=O)N[C@@H](Cc1c[nH]c3ccccc13)C(=O)N[C@@H](CCC(=O)O)C(=O)N2 [Chem. 1, c[c[Cys-His-D-Phe-Arg-Trp-Glu-Cys]- His-D-Phe-Arg-Trp-Glu]] (cyclo(CH[dF]RWECH[dF]RWE); disulfide 1-7) | – | 13 | – | – |
| N=C(N)NCCC[C@@H]1NC(=O)[C@@H](Cc2ccccc2)NC(=O)[C@H](Cc2c[nH]cn2)NC(=O)[C@@H]2C[C@@H](O)CN2C(=O)[C@@H]2CSSC[C@H](NC(=O)[C@H](Cc3c[nH]c4ccccc34)NC1=O)C(=O)N1C[C@H](O)C[C@H]1C(=O)N[C@@H](Cc1c[nH]cn1)C(=O)N[C@H](Cc1ccccc1)C(=O)N[C@@H](CCCNC(=N)N)C(=O)N[C@@H](Cc1c[nH]c3ccccc13)C(=O)N2 [Chem. 32, c[c[Cys-Hyp-His-D-Phe-Arg-Trp- Cys]-Hyp-His-D-Phe-Arg-Trp]] (cyclo(C[Hyp]H[dF]RWC[Hyp]H[dF]RW); disulfide 1-7) | 0.12 nM | 17 | – | – |
| O=C1N[C@H]2CSSC[C@H](NC(=O)[C@H](Cc3c[nH]c4ccccc34)NC(=O)[C@H](Cc3c[nH]cn3)NC(=O)[C@@H](Cc3ccccc3)NC(=O)[C@H](Cc3c[nH]cn3)NC(=O)C3(CCNCC3)NC2=O)C(=O)NC2(CCNCC2)C(=O)N[C@@H](Cc2c[nH]cn2)C(=O)N[C@H](Cc2ccccc2)C(=O)N[C@@H](Cc2c[nH]cn2)C(=O)N[C@H]1Cc1c[nH]c2ccccc12 [Chem. 50, c[c[Cys-ACP-His-D-Phe-His-Trp-Cys]- ACP-His-D-Phe-His-Trp]] (cyclo([Api]H[dF]HWC[Api]H[dF]HWC); disulfide 6-12) | – | 56 | – | – |
| C[C@@H]1NC(=O)[C@H](C)NC(=O)[C@H](CCCCN)NC(=O)[C@H](CCCCN)NC(=O)[C@H]2NC(=O)[C@H](Cc3c[nH]c4ccccc34)NC(=O)[C@H](Cc3c[nH]cn3)NC(=O)[C@@H](Cc3ccccc3)NC(=O)[C@H](Cc3c[nH]cn3)NC(=O)[C@@H]3CSCN3C(=O)[C@H](CSSC2(C)C)NC(=O)[C@H](Cc2c[nH]c3ccccc23)NC1=O [Chem. 117, c[c[Cys-THAZ-His-D-Phe-His-Trp- Pen]-Lys-Lys-Ala-Ala-Trp]] (cyclo(AAWC[Thz]H[dF]HW[Pen]KK); disulfide 4-10) | 0.2 nM | 841 | – | – |
